Reference: ChEMBL document CHEMBL3045663, “Synthesis and Activity of Novel Acaricidal/Insecticidal 2, 4-Diphenyl-1, 3-oxazolines” (J Pestic Sci, 2002)
Values after ≈ are worked out from the molar mass of the structure shown.

Key:
Assay type in all cases: functional
[1] = tested on: Plutella xylostella; experiment: Insecticidal activity against Plutella xylostella (diamondback moth) in compound treated radish leaf assessed as mortality at 500 ppm
[2] = tested on: Nephotettix cincticeps; experiment: Insecticidal activity against Nephotettix cincticeps (green rice leafhopper) in compound treated rice seedlings assessed as mortality at 500 ppm
[3] = tested on: Tetranychus urticae; experiment: Acaricidal activity against Tetranychus urticae (two-spotted spider mite) in compound treated kidney bean leaf assessed as mortality of egg at 1000 ppm at 24 degC measured after 1 week; settings: 168 h
[4] = tested on: Myzus persicae; experiment: Insecticidal activity against Myzus persicae (green peach aphid) in compound treated radish leaf assessed as mortality at 500 ppm
[5] = tested on: Tetranychus urticae; experiment: Acaricidal activity against Tetranychus urticae (two-spotted spider mite) in compound treated kidney bean leaf assessed as larvicidal activity

| Structure (SMILES) | mortality at 500 ppm [1] [%] | mortality at 500 ppm [2] [%] | mortality at 1000 ppm [3] [%] | mortality at 500 ppm [4] [%] | LC50 [5] [mg/L] |
| --- | --- | --- | --- | --- | --- |
| COc1ccccc1C1=NC(c2ccccc2)CO1 (stereo not drawn) | 10 | 10 | 0 | 0 | 10 (≈ 39.5 µM) |
| Clc1cccc(C2=NC(c3ccccc3)CO2)c1Cl (stereo not drawn) | 0 | 0 | 0 | 0 | 10 (≈ 34.2 µM) |
| Clc1cccc(Cl)c1C1=NC(c2ccccc2)CO1 (stereo not drawn) | 10 | 0 | 0 | 10 | 1 (≈ 3.42 µM) |
| Clc1ccc(Cl)c(C2=NC(c3ccccc3)CO2)c1 (stereo not drawn) | 35 | 0 | 0 | 0 | 100 (≈ 342 µM) |
| FC(F)(F)c1ccccc1C1=NC(c2ccccc2)CO1 (stereo not drawn) | 35 | 0 | 0 | 10 | 100 (≈ 343 µM) |
| O=[N+]([O-])c1ccccc1C1=NC(c2ccccc2)CO1 (stereo not drawn) | 0 | 0 | 10 | 0 | 100 (≈ 373 µM) |
| Fc1cccc(F)c1-c1ncc(-c2ccccc2)o1 | 0 | 0 | 0 | 0 | 100 (≈ 389 µM) |
| COc1cccc(C2=NC(c3ccccc3)CO2)c1 (stereo not drawn) | 0 | 0 | 0 | 0 | > 1000 |
| CN(C)c1ccc(C2COC(c3c(F)cccc3F)=N2)cc1 (stereo not drawn) | 0 | 0 | – | 85 | 10 (≈ 33.1 µM) |
| Fc1cccc(F)c1C1=NC(c2ccc(Cl)cc2)CO1 (stereo not drawn) | 0 | 60 | – | 0 | 0.001 (≈ 0.0034 µM) |
| CCCCCCCCCCOc1ccc(C2COC(c3c(F)cccc3F)=N2)cc1 (stereo not drawn) | 100 | 10 | – | 100 | < 0.001 |
| CCCCCCCCc1ccc(C2COC(c3c(F)cccc3F)=N2)c(C)c1 (stereo not drawn) | 100 | 100 | – | 100 | < 0.001 |
| Fc1ccc(C2COC(c3c(F)cccc3F)=N2)cc1F (stereo not drawn) | 0 | 0 | – | 0 | 0.1 (≈ 0.339 µM) |
| CCCCCCCCc1ccc(C2COC(c3c(F)cccc3F)=N2)c(Cl)c1 (stereo not drawn) | 85 | 0 | – | 100 | < 0.001 |
| Fc1cccc(F)c1C1=NC(c2ccc(OCC(F)(F)F)cc2)CO1 (stereo not drawn) | 35 | 100 | – | 100 | < 0.001 |
| Fc1cc(Cl)ccc1C1COC(c2c(F)cccc2F)=N1 (stereo not drawn) | 0 | 0 | – | 100 | < 0.001 |
| CCCOc1cc(C(C)(C)C)ccc1C1COC(c2c(F)cccc2F)=N1 (stereo not drawn) | 85 | 60 | – | 100 | 0.001 (≈ 0.00268 µM) |
| Fc1ccc(C2COC(c3c(F)cccc3F)=N2)c(F)c1 (stereo not drawn) | 85 | 35 | – | 100 | 0.01 (≈ 0.0339 µM) |
| CCCCCCCCCCc1ccc(C2COC(c3c(F)cccc3F)=N2)cc1 (stereo not drawn) | 100 | 0 | – | 85 | < 0.001 |
| CCOc1cc(C(C)(C)C)ccc1C1COC(c2c(F)cccc2F)=N1 (stereo not drawn) [ETOXAZOLE] | 100 | 100 | – | 100 | 0.001 (≈ 0.00278 µM) |

| Structure (SMILES) | mortality at 500 ppm [1] [%] | mortality at 500 ppm [2] [%] | mortality at 1000 ppm [3] [%] | mortality at 500 ppm [4] [%] | LC50 [5] [mg/L] |
| --- | --- | --- | --- | --- | --- |
| CCCCCCCCCCc1ccc(C2COC(c3c(F)cccc3F)=N2)c(OC)c1 (stereo not drawn) | 85 | 10 | – | 100 | 0.01 (≈ 0.0233 µM) |
| CCc1ccc(C2COC(c3c(F)cccc3F)=N2)c(F)c1 (stereo not drawn) | 0 | 0 | – | 0 | 0.1 (≈ 0.328 µM) |
| CCCCOc1cc(F)ccc1C1COC(c2c(F)cccc2F)=N1 (stereo not drawn) | 85 | 100 | – | 60 | < 0.001 |
| CCCCCCCCc1ccc(C2COC(c3c(F)cccc3F)=N2)c(OC)c1 (stereo not drawn) | 85 | 0 | – | 100 | 0.01 (≈ 0.0249 µM) |
| CC(C)Oc1ccc(C2COC(c3c(F)cccc3F)=N2)cc1 (stereo not drawn) | 0 | 0 | – | 100 | 0.001 (≈ 0.00315 µM) |
| CCCCCCCCc1ccc(C2COC(c3c(F)cccc3F)=N2)cc1 (stereo not drawn) | 85 | 0 | – | 100 | < 0.001 |
| Oc1ccc(C2COC(c3c(F)cccc3F)=N2)cc1 (stereo not drawn) | 10 | 60 | – | 0 | 10 (≈ 36.3 µM) |
| CCCCCCc1ccc(C2COC(c3c(F)cccc3F)=N2)cc1 (stereo not drawn) | 10 | 0 | – | 100 | < 0.001 |
| CC(C)(C)c1ccc(C2COC(c3c(F)cccc3F)=N2)cc1 (stereo not drawn) | 0 | 60 | – | 100 | < 0.001 |
| CCOc1cccc(C2COC(c3c(F)cccc3F)=N2)c1 (stereo not drawn) | 0 | 0 | – | 0 | 1 (≈ 3.3 µM) |
| CCCCCc1ccc(C2COC(c3c(F)cccc3F)=N2)c(OCCC)c1 (stereo not drawn) | 85 | 60 | – | 85 | 0.001 (≈ 0.00258 µM) |
| CCCCCCCCCCc1ccc(C2COC(c3c(F)cccc3F)=N2)c(F)c1 (stereo not drawn) | 100 | 0 | – | 10 | 0.001 (≈ 0.0024 µM) |
| Fc1ccc(C2COC(c3c(F)cccc3F)=N2)c(Cl)c1 (stereo not drawn) | 0 | 35 | – | 100 | 0.1 (≈ 0.321 µM) |
| CCCCCCOc1cc(C(C)(C)C)ccc1C1COC(c2c(F)cccc2F)=N1 (stereo not drawn) | 100 | 60 | – | 10 | 0.1 (≈ 0.241 µM) |
| Fc1cc(C2COC(c3c(F)cccc3F)=N2)ccc1Cl (stereo not drawn) | 35 | 60 | – | 100 | 0.01 (≈ 0.0321 µM) |
| Cc1ccc(C2COC(c3c(F)cccc3F)=N2)cc1 (stereo not drawn) | 0 | 60 | – | 100 | 0.1 (≈ 0.366 µM) |
| Fc1cccc(F)c1C1=NC(c2ccc(Cl)c(Cl)c2)CO1 (stereo not drawn) | 60 | 0 | – | 100 | 0.1 (≈ 0.305 µM) |
| CS(=O)(=O)c1ccc(C2COC(c3c(F)cccc3F)=N2)cc1 (stereo not drawn) | 60 | 0 | – | 85 | 100 (≈ 296 µM) |
| COc1cc(F)ccc1C1COC(c2c(F)cccc2F)=N1 (stereo not drawn) | 10 | 100 | – | 100 | 0.1 (≈ 0.325 µM) |
| CCCCCCCCCCCCc1ccc(C2COC(c3c(F)cccc3F)=N2)c(F)c1 (stereo not drawn) | 100 | 0 | – | 0 | 0.01 (≈ 0.0224 µM) |
